Data on 6 compounds can be found in patent US20160024052A1, “BENZIMIDAZOLE RETINOIC ACID RECEPTOR-RELATED ORPHAN RECEPTOR MODULATORS AND USES THEREOF” (INNOV17 LLC, priority 2014, published 2016).

Common to all, as to type: cell-based
Conditions in all cases: 72 h; human CD4+ T cells under TH17-polarizing conditions, 3 days, supernatant ELISA, 0.1% DMSO
(In general: ELISA stands for enzyme-linked immunosorbent assay.)

For one experiment, the system named is IL-17A. The experiment can be described thus: Human TH17 cytokine inhibition measured by ELISA: IL-17A. How it is done:
(§1) Human TH17 Cytokine Inhibition as Measured by ELISA
(§2) Peripheral blood mononuclear cells (PBMCs) were sourced from freshly prepared leukocyte enriched plasma (buffy coat) from healthy donors (New York Blood Center). PBMCs were isolated by density gradient centrifugation using Ficoll-Paque™ PLUS (GE Healthcare). Human CD4+ T cells were seeded into 96-well plates (5×10^4 cells/well) and activated with plate-bound anti-human (h)-CD3 antibody and soluble h-aCD28 (both at lug/ml; eBioscience) and differentiated into TH17 cells with 20 ng/mL h-IL-6, 5 ng/mL h-TGF-β1, 10 ng/mL h-IL-23 (eBioscience) and 10 ng/mL IL-1β (Miltenyi Biotec) in serum-free TexMACS Medium (Miltenyi Biotec) supplemented with 1% Penicillin/Streptomycin (Lonza) for 3 days. CD4+ T cells propagated under TH17-polarizing conditions were cultured in the presence or absence of various concentrations of compounds with a final concentration of 0.1% DMSO. Supernatants were collected and stored at −20° C. until assayed for IL-17A, IL-17F and IL-21 levels by “Ready-Set-Go” ELISA kits (eBioscience) as per manufacturer's instructions. Endpoint absorbance was read at 450 nm using a microplate reader (Perkin Elmer).

The next experiment concerns IL-17F. Put plainly: Human TH17 cytokine inhibition measured by ELISA: IL-17F. The procedure:
as §1, §2

A further experiment deals with IL-22. The experiment can be described thus: Human TH17 cytokine inhibition measured by ELISA: IL-22.
A further experiment concerns IL-21. The experiment can be described thus: Human TH17 cytokine inhibition measured by ELISA: IL-21. The procedure:
as §1, §2

The IC50 is the concentration at which inhibition is half-maximal. Higher therefore signals weaker potency in that assay. For the compound `O=C(c1ccccc1)N1CCC(Cn2cnc3cc(-c4cn[nH]c4)ccc32)CC1` [Example 7, (4-((5-(1H-pyrazol-4-yl)-1H-benzo[d]imidazol-1-yl)methyl)piperidin-1-yl)(phenyl)methanone], the IC50 is > 10 µM in the experiment with IL-17A, < 10 µM in the experiment with IL-17F, < 10 µM in the experiment with IL-22 and < 10 µM in the experiment on IL-21.

Regarding `O=C(Cc1ccccc1)N1CCC(Cn2cnc3cc(-c4cn[nH]c4)ccc32)CC1` [Example 8], the half-inhibitory concentration (IC50) with IL-17A is > 10 µM; in the experiment with IL-17F, < 10 µM; with IL-22 it was < 10 µM; with IL-21, < 10 µM.

In the case of `O=C(CCc1ccccc1)N1CCC(Cn2cnc3cc(-c4cn[nH]c4)ccc32)CC1` [Example 9, 1-(4-((5-(1H-pyrazol-4-yl)-1H-benzo[d]imidazol-1-yl)methyl)piperidin-1-yl)-3-phenylpropan-1-one], the IC50 with IL-17A, with IL-17F, with IL-22 and in the experiment with IL-21 was < 10 µM in each case.

Turning to `O=C(CC1CCCCC1)N1CCC(Cn2cnc3cc(-c4cn[nH]c4)ccc32)CC1` [Example 10], the half-maximal inhibitory concentration (IC50) in the experiment with IL-17A, in the experiment on IL-17F, in the experiment with IL-22 and in the experiment on IL-21 was < 10 µM in each case.

In the case of `O=S(=O)(c1ccccc1)N1CCC(Cn2cnc3cc(-c4cn[nH]c4)ccc32)CC1` [Example 11, 1-((1-(phenylsulfonyl)piperidin-4-yl)methyl)-5-(1H-pyrazol-4-yl)-1H-benzo[d]imidazole], the 50% inhibitory concentration (IC50) in the experiment on IL-17A, in the experiment on IL-17F, in the experiment with IL-22 and with IL-21 was < 10 µM in each case.

Turning to `O=S(=O)(Cc1ccccc1)N1CCC(Cn2cnc3cc(-c4cn[nH]c4)ccc32)CC1` [Example 12, 1-((1-(benzylsulfonyl)piperidin-4-yl)methyl)-5-(1H-pyrazol-4-yl)-1H-benzo[d]imidazole], the IC50 in the experiment on IL-17A is < 10 µM; in the experiment with IL-17F it was < 10 µM; in the experiment on IL-22, < 10 µM; in the experiment with IL-21, > 10 µM.
